Source: US20050250137A1, “Molecular targets of cancer and aging” (priority 2002, published 2005)

Assay: GoMiner gene ontology analysis of differentially regulated genes
Design: species or system human
[1] = Biological process: Bbiological—process unknown, GO 0000004, Total 232
[2] = Biological process: Cell adhesion, GO 0007155, Total 361
[3] = Biological process: Cell death, GO 0008219, Total 272
[4] = Biological process: Cell differentiation, GO 0030154, Total 106
[5] = Biological process: Cell motility, GO 0006928, Total 222
[6] = Biological process: Cell organization and biogenesis, GO 0016043, Total 282
[7] = Biological process: Cell proliferation, GO 0008283, Total 667
[8] = Biological process: Cell-cell signaling, GO 0007267, Total 365
[9] = Biological process: Metabolism, GO 0008152, Total 3192
[10] = Biological process: Response to endogenous stimulus, GO 0009719, Total 134
[11] = Biological process: Response to extracellular stimulus, GO 0009991, Total 10
[12] = Biological process: Response to stress, GO 0006950, Total 501
[13] = Biological process: Signal transduction, GO 0007165, Total 1321
[14] = Biological process: Transport, GO 0006810, Total 873
[15] = Biological process: alcohol metabolism, GO 0006066, Total 151
[16] = Biological process: amine metabolism, GO 0009308, Total 175
[17] = Biological process: amino acid and derivative metabolism, GO 0006519, Total 149
[18] = Biological process: anti-apoptosis, GO 0006916, Total 59
[19] = Biological process: apoptotic program, GO 0008632, Total 26
[20] = Biological process: biosynthesis, GO 0009058, Total 525
[21] = Biological process: carbohydrate metabolism, GO 0005975, Total 228
[22] = Biological process: catabolism, GO 0009056, Total 450
[23] = Biological process: cell cycle, GO 0007049, Total 442
[24] = Biological process: cell migration, GO 0016477, Total 39
[25] = Biological process: cell surface receptor linked signal transduction, GO 0007166, Total 588
[26] = Biological process: cell—cell adhesion, GO 0016337, Total 124
[27] = Biological process: cytokinesis, GO 0000910, Total 64
[28] = Biological process: cytoplasm organization and biogenesis, GO 0007028, Total 166
[29] = Biological process: electron transport, GO 0006118, Total 150
[30] = Biological process: energy pathways, GO 0006091, Total 158
[31] = Biological process: induction of apoptosis, GO 0006917, Total 83
[32] = Biological process: induction of programmed cell death, GO 0012502, Total 83
[33] = Biological process: intracellular signaling cascade, GO 0007242, Total 444
[34] = Biological process: intracellular transport, GO 0046907, Total 258
[35] = Biological process: ion transport, GO 0006811, Total 320
[36] = Biological process: lipid metabolism, GO 0006629, Total 299
[37] = Biological process: lymphocyte differentiation, GO 0030098, Total 22
[38] = Biological process: nuclear organization and biogenesis, GO 0006997, Total 109
[39] = Biological process: nucleobase, nucleoside, nucleotide and nucleic acid metabolism, GO 0006139, Total 1351
[40] = Biological process: organic acid metabolism, GO 0006082, Total 226
[41] = Biological process: phosphorus metabolism, GO 0006793, Total 423
[42] = Biological process: protein metabolism, GO 0019538, Total 1170
[43] = Biological process: protein transport, GO 0015031, Total 223
[44] = Biological process: regulation of cell proliferation, GO 0042127, Total 175
[45] = Biological process: regulation of metabolism, GO 0019222, Total 32
[46] = Biological process: response to DNA damage stimulus (under Response to endogenous stimulus), GO 0006974, Total 133
[47] = Biological process: response to DNA damage stimulus (under Response to stress), GO 0006974, Total 133
[48] = Biological process: response to abiotic stimulus, GO 0009628, Total 224
[49] = Biological process: response to biotic stimulus, GO 0009607, Total 552
[50] = Biological process: response to external stimulus, GO 0009605, Total 813
[51] = Biological process: response to pest/pathogen/parasite, GO 0009613, Total 287
[52] = Biological process: response to wounding, GO 0009611, Total 173
[53] = Biological process: taxis, GO 0042330, Total 77
[54] = Biological process: vesicle-mediated transport, GO 0016192, Total 167

In the case of `Nc1ncn([C@H]2C[C@H](O)[C@@H](CO)O2)c(=O)n1` [5-aza-dC, 5-aza-2′-deoxycytidine], the “5-aza-dC Down” value [1] is reported as 2, the “5-aza-dC Up” value [1] is reported as 6 and the “5-aza-dC Down” value [2] is reported as 0. The “5-aza-dC Up” value [2] was 7, the “5-aza-dC Down” value [3] was 2 and the “5-aza-dC Up” value [3] was 15. For the same compound, the “5-aza-dC Down” value [4] was 1, the “5-aza-dC Up” value [4] was 5 and the “5-aza-dC Down” value [5] was 1. The “5-aza-dC Up” value [5] was 1, the “5-aza-dC Down” value [6] was 0 and the “5-aza-dC Up” value [6] was 12. The “5-aza-dC Down” value [7] was 11, the “5-aza-dC Up” value [7] was 18 and the “5-aza-dC Down” value [8] was 0. For the same compound, the “5-aza-dC Up” value [8] was 11, the “5-aza-dC Down” value [9] was 18 and the “5-aza-dC Up” value [9] was 78. The “5-aza-dC Down” value [10] was 1, the “5-aza-dC Up” value [10] was 2 and the “5-aza-dC Down” value [11] was 0. For the same compound, the “5-aza-dC Up” value [11] was 1, the “5-aza-dC Down” value [12] was 3 and the “5-aza-dC Up” value [12] was 21. The “5-aza-dC Down” value [13] was 6, the “5-aza-dC Up” value [13] was 33 and the “5-aza-dC Down” value [14] was 1. For the same compound, the “5-aza-dC Up” value [14] was 12, the “5-aza-dC Down” value [15] was 2 and the “5-aza-dC Up” value [15] was 4. The “5-aza-dC Down” value [16] was 1, the “5-aza-dC Up” value [16] was 3 and the “5-aza-dC Down” value [17] was 1. For the same compound, the “5-aza-dC Up” value [17] was 3, the “5-aza-dC Down” value [18] was 0 and the “5-aza-dC Up” value [18] was 5. The “5-aza-dC Down” value [19] was 1, the “5-aza-dC Up” value [19] was 3 and the “5-aza-dC Down” value [20] was 6. The “5-aza-dC Up” value [20] was 7, the “5-aza-dC Down” value [21] was 2 and the “5-aza-dC Up” value [21] was 4. The “5-aza-dC Down” value [22] was 2, the “5-aza-dC Up” value [22] was 9 and the “5-aza-dC Down” value [23] was 7. The “5-aza-dC Up” value [23] was 14, the “5-aza-dC Down” value [24] was 0 and the “5-aza-dC Up” value [24] was 1. The “5-aza-dC Down” value [25] was 2, the “5-aza-dC Up” value [25] was 14 and the “5-aza-dC Down” value [26] was 0. For the same compound, the “5-aza-dC Up” value [26] was 1, the “5-aza-dC Down” value [27] was 2 and the “5-aza-dC Up” value [27] was 0. For the same compound, the “5-aza-dC Down” value [28] was 0, the “5-aza-dC Up” value [28] was 1 and the “5-aza-dC Down” value [29] was 2. The “5-aza-dC Up” value [29] was 4, the “5-aza-dC Down” value [30] was 2 and the “5-aza-dC Up” value [30] was 1. The “5-aza-dC Down” value [31] was 0, the “5-aza-dC Up” value [31] was 3 and the “5-aza-dC Down” value [32] was 0. The “5-aza-dC Up” value [32] was 3, the “5-aza-dC Down” value [33] was 2 and the “5-aza-dC Up” value [33] was 10. For the same compound, the “5-aza-dC Down” value [34] was 1, the “5-aza-dC Up” value [34] was 6 and the “5-aza-dC Down” value [35] was 0. The “5-aza-dC Up” value [35] was 2, the “5-aza-dC Down” value [36] was 1 and the “5-aza-dC Up” value [36] was 4. The “5-aza-dC Down” value [37] was 0, the “5-aza-dC Up” value [37] was 3 and the “5-aza-dC Down” value [38] was 0. The “5-aza-dC Up” value [38] was 11, the “5-aza-dC Down” value [39] was 6 and the “5-aza-dC Up” value [39] was 41. For the same compound, the “5-aza-dC Down” value [40] was 1, the “5-aza-dC Up” value [40] was 3 and the “5-aza-dC Down” value [41] was 5. The “5-aza-dC Up” value [41] was 9, the “5-aza-dC Down” value [42] was 9 and the “5-aza-dC Up” value [42] was 27. The “5-aza-dC Down” value [43] was 1, the “5-aza-dC Up” value [43] was 7 and the “5-aza-dC Down” value [44] was 3. The “5-aza-dC Up” value [44] was 8, the “5-aza-dC Down” value [45] was 0 and the “5-aza-dC Up” value [45] was 1. For the same compound, the “5-aza-dC Down” value [46] was 1, the “5-aza-dC Up” value [46] was 2 and the “5-aza-dC Down” value [47] was 1. The “5-aza-dC Up” value [47] was 2, the “5-aza-dC Down” value [48] was 0 and the “5-aza-dC Up” value [48] was 8. The “5-aza-dC Down” value [49] was 1, the “5-aza-dC Up” value [49] was 26 and the “5-aza-dC Down” value [50] was 2. The “5-aza-dC Up” value [50] was 30, the “5-aza-dC Down” value [51] was 1 and the “5-aza-dC Up” value [51] was 17. The “5-aza-dC Down” value [52] was 1, the “5-aza-dC Up” value [52] was 14 and the “5-aza-dC Down” value [53] was 0. The “5-aza-dC Up” value [53] was 7, the “5-aza-dC Down” value [54] was 0 and the “5-aza-dC Up” value [54] was 2. The “5-aza-dC Down” value (Cellular component: Cellular—component unknown, GO 0008372, Total 266) was 2.
